# Test results reported in patent USRE37664E1, “Use of derivatives of N-phenl-3,4,5,6-tetrahydrophthalimide for the desiccation and abscission of plant organs” (BASF Aktiengessellschaft, priority 1989, dated 2002).
# Counter-ions that a name gives are not always drawn.
# How the values were obtained:
# [1] = test system: cotton plants (Delta Pine variety); assay: Defoliation of young cotton plants under greenhouse conditions, Example C; format: in vivo; settings: foliar treatment of young cotton plants, 3 days after application, day/night 28/20° C., percentage of the control
# Description: Young cotton plants (Delta Pine variety, stage of development: 5-6 developed foliage leaves) were cultivated under green house conditions (day/night temperature 28/20° C., relative humidity […]) and the foliage was treated, until dripping wet, with aqueous formulations of the stated active ingredients. The converted amount of water was 1,000 l/ha. 3 days after application of the active ingredient, the number of dropped leaves and the degree of defoliation as a percentage of the control were stared. No dropping of leaves occurred in the untreated control plants.
# [2] = test system: cotton plants (Delta Pine variety); assay: Defoliation of young cotton plants under greenhouse conditions, Example A; format: in vivo; settings: 12 days after application, day/night 23/16° C., as a percentage of the control
# Description: Young cotton plants (Delta Pine variety, development stage: 5-6 developed foliage leaves) were cultivated under greenhouse conditions (day/night temperature 23/16° C., relative humidity 50-70%) and the foliage was treated, until dripping wet, with aqueous formulations of the stated active ingredients. The converted amount of water was 1,000 l/ha. 12 days after application of the active ingredient, the number of dropped leaves and the degree of defoliation as a percentage of the control were stated. No dropping of leaves occurred in the untreated control plants.
# [3] = converted application rate 0.125 kg/ha
# [4] = converted application rate 0.250 kg/ha
Structure (SMILES),melting point [°C],"% defoliation [1, 3] [%]","% defoliation [1, 4] [%]",% defoliation ([2]; 0.062 kg/ha) [%],% defoliation ([2]; 0.125 kg/ha) [%],% defoliation ([2]; 0.250 kg/ha) [%],% defoliation ([2]; 0.500 kg/ha) [%]
Cc1ncccc1C(=O)N(C)C,87 to 103,,,,,,
CC1CCCO1 (centres unmarked),,48,53,,,,
"O=C(Nc1ccccc1)Nc1cnns1 [Comparative agent I, N-phenyl-N′-(1,2,3-thiadiazol-5-yl)-urea, reference compound]",,,,13,31,67,
"c1cc[n+]2c(c1)-c1cccc[n+]1CC2 [Comparative agent II, 6,7-dihydropyridol(1,2-α:2′,1′-c)pyridilium as the dibromide monohydrate salt, reference compound]",,,,,,11,27
COC(=O)C(Br)=Cc1cc(N2C(=O)C3=C(CCCC3)C2=O)ccc1Cl [Compound 1.1],,100,98,26,61,80,
"CCOC(=O)C(Cl)=Cc1cc(N2C(=O)C3=C(CCCC3)C2=O)ccc1Cl [Compound 1.17, N-[3-(1′-ethoxycarbonyl-1′-chloroethenyl)-4-chlorophenyl]-3,4,5,6-tetrahydrophthalimide]",,95,100,55,84,89,
COC(=O)C(C)=Cc1cc(N2C(=O)C3=C(CCCC3)C2=O)ccc1Cl [Compound 1.26],,,,67,79,89,
CC1CSC(c2cc(N3C(=O)C4=C(CCCC4)C3=O)ccc2Cl)S1 (centres unmarked) [Compound 2.5],,97,100,50,70,97,
O=C1C2=C(CCCC2)C(=O)N1c1cc(OCC2CCCOC2)c(Cl)cc1F (centres unmarked) [Compound 4.1],,,,83,,,
COC(=O)C(C)ON=C(C#N)c1cc(N2C(=O)C3=C(CCCC3)C2=O)ccc1Cl (centres unmarked) [Compound 7.27],,100,95,,,,
